Here are results for 19 compounds from patent US6417199B1, “3-benzyl-benzothiophenes” (Eli Lilly and Company, priority 1995, dated 2002).

For assay [1], the system named is MCF-7 breast adenocarcinoma cells. The assay is described as follows: MCF-7 Proliferation Assay. It is filed as cell-based. The following applies: Homo sapiens, MCF7; MCF-7 cells, 48 hours with drug, tritiated thymidine incorporation; read-out: ED50 (the source's name). As to the method:
MCF-7 breast adenocarcinoma cells (ATCC HTB 22) were maintained in MEM (minimal essential medium, phenol red-free, Sigma, St. Louis, Mo.) supplimented with 10% fetal bovine serum (FBS) (V/V), L-glutamine (2 mM), sodium pyruvate (1 mM), HEPES {(N-[2-hydroxyethyl]piperazine-N′-[2-ethanesulfonic acid]10 mM}, non-essential amino acids and bovine insulin (1 ug/mL) (maintenance medium). Ten days prior to assay, MCF-7 cells were switched to maintenance medium supplemented with 10% dextran coated charcoal stripped fetal bovine serum (DCC-FBS) assay medium) in place of 10% FBS to deplete internal stores of steroids. MCF-7 cells were removed from maintenance flasks using cell dissociation medium (Ca++/Mg++ free HBSS (phenol red-free) supplemented with 10 mM HEPES and 2 mM EDTA). Cells were say medium and adjusted to 80,000 cells/mL. Approximately 100 μL (8,000 cells) were added to flat-bottom microculture wells (Costar 3596) and incubated at 37° C. in a 5% CO2 humidified incubator for 48 hours to allow for cell adherence and equilbration after transfer. Serial dilutions of drugs or DSMO as a diluent control were prepared in assay medium and 50 μL transferred to triplicate microcultures followed by 50 μL assay medium for a final volume of 200 μL. After an additional 48 hours at 37° C. in a 5% CO2 humidified incubator, microcultures were pulsed with tritiated thymidine (1 uCi/well) for 4 hours. Cultures were terminated by freezing at −70° C. for 24 hours followed by thawing and harvesting of microcultures using a Skatron Semiautomatic Cell Harvester. Samples were counted by liquid scintillation using a Wallac BetaPlace β counter. Results in Table 2 below show the ED50 for certain compounds of the present invention.
(Incorporation of labelled thymidine or its analogues reports DNA synthesis.)

Assay [2] concerns Serum Cholesterol. The assay is described as follows: Serum cholesterol in ovariectomized rat post-menopausal model. As to conditions: ovariectomized rats, dosed orally daily for 4 days; for ED50: Rattus norvegicus, po, 96 h. It is filed as in vivo, Sprague Dawley rats. As to the method:
In the examples illustrating the methods, a post-menopausal model was used in which effects of different treatments upon circulating lipids were determined.
Seventy-five day old female Sprague Dawley rats (weight range of 200 to 225 g) are obtained from Charles River Laboratories (Portage, Mich.). The animals are either bilaterally ovariectomized (OVX) or exposed to a Sham surgical procedure at Charles River Laboratories, and then shipped after one week. Upon arrival, they are housed in metal hanging cages in groups of 3 or 4 per cage and had ad libitum access to food (calcium content approximately 0.5%) and water for one week. Room temperature is maintained at 22.2°±1.7° C. with a minimum relative humidity of 40%. The photoperiod in the room was 12 hours light and 12 hours dark.
Dosing Reaimen Tissue Collection. After a one week acclimation period (therefore, two weeks post-OVX) daily dosing with test compound is initiated. 17α-ethynyl estradiol or the test compound is given orally, unless otherwise stated, as a suspension in 1% carboxymethylcellulose or dissolved in 20% cyclodextrin. Animals are dosed daily for 4 days. Following the dosing regimen, animals are weighed and anesthetized with a ketamine: xylazine (2:1, V:V) mixture and a blood sample is collected by cardiac puncture. The animals are then sacrificed by asphyxiation with CO2, the uterus is removed through a midline incision, and a wet uterine weight is determined.
Cholesterol Analysis. Blood samples are allowed to clot at room temperature for 2 hours, and serum is obtained following centrifugation for 10 minutes at 3000 rpm. Serum cholesterol is determined using a Boehringer Mannheim Diagnostics high performance cholesterol assay. Briefly the cholesterol is oxidized to cholest-4-en-3-one and hydrogen peroxide. The hydrogen peroxide is then reacted with phenol and 4-aminophenazone in the presence of peroxidase to produce a p-quinone imine dye, which is read spectrophotemetrically at 500 nm. Cholesterol concentration is then calculated against a standard curve. The entire assay is automated using a Biomek Automated Workstation.
Data presented in Table 1 below show results when rats were treated with certain compounds of the present invention. The compounds of the present invention generally reduce serum cholesterol compared to the ovariectomized control animals.

Each structure is given as a SMILES string.

By ED50 is commonly meant the midpoint of the dose-response relation. A high value points to a need for a large dose. As to `COC(c1ccc(OCCN2CCCCC2)cc1)c1c(-c2ccc(O)cc2)sc2cc(O)ccc12` (centres unmarked) [Example 1], the EC50 in assay [1] was 0.8 nM. In addition, the 50% effect level in assay [2] (ED50) was put at a dose of 3.5 mg/kg.
For `CCOC(c1ccc(OCCN2CCCCC2)cc1)c1c(-c2ccc(O)cc2)sc2cc(O)ccc12` (centres unmarked) [Example 2] the same measures were 3 nM and 10 mg/kg.
For `CCCOC(c1ccc(OCCN2CCCCC2)cc1)c1c(-c2ccc(O)cc2)sc2cc(O)ccc12` (centres unmarked) [Example 3] the same measures were 2 nM and 10 mg/kg.
As to `CC(C)OC(c1ccc(OCCN2CCCCC2)cc1)c1c(-c2ccc(O)cc2)sc2cc(O)ccc12` (centres unmarked) [Example 4], the EC50 in assay [1] amounted to 10 nM. The ED50 in assay [2] is 4.1 mg/kg.
The matching figures for `CCCCOC(c1ccc(OCCN2CCCCC2)cc1)c1c(-c2ccc(O)cc2)sc2cc(O)ccc12` (centres unmarked) [Example 5]: 1.5 nM and 2.5 mg/kg.
For `Oc1ccc(C2Sc3cc(O)ccc3C2C(OCc2ccccc2)c2ccc(OCCN3CCCCC3)cc2)cc1` (centres unmarked) [Example 6] the same measures were 0.5 nM and 10 mg/kg.
For `N#CCCOC(c1ccc(OCCN2CCCCC2)cc1)c1c(-c2ccc(O)cc2)sc2cc(O)ccc12` (centres unmarked) [Example 7] the same measures were 7 nM and 2.4 mg/kg.
As to `OCCOC(c1ccc(OCCN2CCCCC2)cc1)c1c(-c2ccc(O)cc2)sc2cc(O)ccc12` (centres unmarked) [Example 8], in assay [1], the EC50 is 20 nM. The 50% effective dose (ED50) in assay [2] was determined as 2.9 mg/kg.
For `CSC(c1ccc(OCCN2CCCCC2)cc1)c1c(-c2ccc(O)cc2)sc2cc(O)ccc12` (centres unmarked) [Example 9] the same measures were 3 nM and 5.1 mg/kg.
The matching figures for `CCSC(c1ccc(OCCN2CCCCC2)cc1)c1c(-c2ccc(O)cc2)sc2cc(O)ccc12` (centres unmarked) [Example 10]: 1.2 nM and 1.7 mg/kg.
The matching figures for `CN(C)C(c1ccc(OCCN2CCCCC2)cc1)c1c(-c2ccc(O)cc2)sc2cc(O)ccc12` (centres unmarked) [Example 11]: 20 nM and 0.1 mg/kg.
Take `CNC(c1ccc(OCCN2CCCCC2)cc1)c1c(-c2ccc(O)cc2)sc2cc(O)ccc12` (centres unmarked) [Example 12]: the EC50 in assay [1] came out at 4 nM. The same compound yielded a 50% effective dose (ED50) in assay [2] of 0.8 mg/kg.
For `N#CC(c1ccc(OCCN2CCCCC2)cc1)c1c(-c2ccc(O)cc2)sc2cc(O)ccc12` (centres unmarked) [Example 13] the same measures were 0.8 nM and 0.8 mg/kg.
The matching figures for `NC(c1ccc(OCCN2CCCCC2)cc1)c1c(-c2ccc(O)cc2)sc2cc(O)ccc12` (centres unmarked) [Example 14]: 6 nM and 5.7 mg/kg.
The matching figures for `CCN(CC)C(c1ccc(OCCN2CCCCC2)cc1)c1c(-c2ccc(O)cc2)sc2cc(O)ccc12` (centres unmarked) [Example 15]: 7 nM and 3.8 mg/kg.
Consider `Oc1ccc(-c2sc3cc(O)ccc3c2C(c2ccc(OCCN3CCCCC3)cc2)N2CCCC2)cc1` (centres unmarked) [Example 16], for which the EC50 in assay [1] was 15 nM. The compound also registered an ED50 in assay [2] of 10 mg/kg.
The matching figures for `Oc1ccc(-c2sc3cc(O)ccc3c2C(c2ccc(OCCN3CCCCC3)cc2)N2CCCCCC2)cc1` (centres unmarked) [Example 17]: 30 nM and 10 mg/kg.
For `OCCNC(c1ccc(OCCN2CCCCC2)cc1)c1c(-c2ccc(O)cc2)sc2cc(O)ccc12` (centres unmarked) [Example 18], in assay [1], the EC50 amounted to 90 nM. Moreover, in assay [2], the “Serum Cholesterol ED50 (mg/kg)” value was “N.A. at 10.0;”.
For the compound `Oc1ccc(-c2sc3cc(O)ccc3c2C(NN2CCCCC2)c2ccc(OCCN3CCCCC3)cc2)cc1` (centres unmarked) [Example 20], the EC50 in assay [1] was found to be 7 nM. For the same compound, in assay [2], the ED50 came to 10 mg/kg.
